Laboratory results published in US6608086B2, “Dihydropyridines and new uses thereof” (Synaptic Pharmaceutical Corporation, priority 1993, dated 2003).
Where a name gives a salt, the structure may show the parent alone. Read-outs that look alike come from different tables or passages of the source.

Columns and labels:
[1] = target: T1, α1B Human Adrenergic Receptor (Homo sapiens, UniProt P35368); test: Radioligand binding, [3H]prazosin, cloned human α1B adrenergic receptor; details: for Ki: read-out: pKi alpha-1 1b (converted)
T1 construct: The entire coding region of α1B (1563 bp); expressed in transfected cells
T1 sequence (P35368 1-520): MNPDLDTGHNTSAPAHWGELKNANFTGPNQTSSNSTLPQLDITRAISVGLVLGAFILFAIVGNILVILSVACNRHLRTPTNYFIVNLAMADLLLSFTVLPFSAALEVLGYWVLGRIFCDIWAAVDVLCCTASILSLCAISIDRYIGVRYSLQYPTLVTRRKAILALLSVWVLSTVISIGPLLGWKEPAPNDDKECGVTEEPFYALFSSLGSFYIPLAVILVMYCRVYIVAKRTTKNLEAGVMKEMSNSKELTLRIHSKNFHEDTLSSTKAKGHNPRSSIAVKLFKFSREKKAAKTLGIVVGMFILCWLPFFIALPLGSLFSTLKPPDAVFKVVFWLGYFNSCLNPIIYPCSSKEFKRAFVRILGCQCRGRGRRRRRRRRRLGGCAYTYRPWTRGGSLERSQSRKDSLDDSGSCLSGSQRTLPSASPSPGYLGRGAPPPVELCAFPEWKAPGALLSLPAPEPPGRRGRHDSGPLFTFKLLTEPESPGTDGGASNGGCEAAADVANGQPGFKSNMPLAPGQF
Procedure, shortened: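 Membranes from stably transfected LM(tk−) cells, resuspended in 50 mM Tris-HCl, 1 mM MgCl2, 0.1% ascorbic acid, pH 7.5, were incubated with 0.5 nM [3H]prazosin for 20 min at 37° C. Nonspecific binding defined with 10 μM phentolamine; bound ligand separated by GF/B filtration.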

α2A receptor = target: T2, α2A receptor (Homo sapiens, UniProt P08913); test: Competition binding, [3H]rauwolscine, human α2A receptor; details: for Ki: read-out: pKi alpha-2 2a (converted)
T2 construct: host or cells: LM(tk-) cells, line L-α2A
T2 sequence (P08913 1-465): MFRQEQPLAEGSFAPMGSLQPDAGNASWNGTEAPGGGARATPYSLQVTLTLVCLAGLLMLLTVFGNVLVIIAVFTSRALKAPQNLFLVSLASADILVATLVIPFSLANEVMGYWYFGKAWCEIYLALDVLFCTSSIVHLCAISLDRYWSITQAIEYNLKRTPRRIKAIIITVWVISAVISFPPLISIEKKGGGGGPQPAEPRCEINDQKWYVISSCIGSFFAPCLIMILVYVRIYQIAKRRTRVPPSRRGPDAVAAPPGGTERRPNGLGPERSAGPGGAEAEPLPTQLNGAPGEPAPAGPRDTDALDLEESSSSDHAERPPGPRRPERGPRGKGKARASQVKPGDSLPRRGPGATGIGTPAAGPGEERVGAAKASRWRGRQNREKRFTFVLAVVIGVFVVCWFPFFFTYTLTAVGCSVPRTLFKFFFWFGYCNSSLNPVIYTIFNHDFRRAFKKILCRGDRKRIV
Procedure, shortened: (§1)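 Cell lysates from stably transfected LM(tk−) lines are resuspended in 25 mM glycylglycine (pH 7.6 at room temperature), incubated to equilibrium with 0.5 nM [3H]rauwolscine plus competitor, then filtered through GF/B filters; 10 μM phentolamine defines nonspecific binding.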

α2B receptor = target: T3, α2B receptor (Homo sapiens, UniProt P18089); test: Competition binding, [3H]rauwolscine, human α2B receptor; details: for Ki: read-out: pKi alpha-2 2b (converted)
T3 construct: host or cells: LM(tk-) cells, line L-NGC-α2B
T3 sequence (P18089 1-450): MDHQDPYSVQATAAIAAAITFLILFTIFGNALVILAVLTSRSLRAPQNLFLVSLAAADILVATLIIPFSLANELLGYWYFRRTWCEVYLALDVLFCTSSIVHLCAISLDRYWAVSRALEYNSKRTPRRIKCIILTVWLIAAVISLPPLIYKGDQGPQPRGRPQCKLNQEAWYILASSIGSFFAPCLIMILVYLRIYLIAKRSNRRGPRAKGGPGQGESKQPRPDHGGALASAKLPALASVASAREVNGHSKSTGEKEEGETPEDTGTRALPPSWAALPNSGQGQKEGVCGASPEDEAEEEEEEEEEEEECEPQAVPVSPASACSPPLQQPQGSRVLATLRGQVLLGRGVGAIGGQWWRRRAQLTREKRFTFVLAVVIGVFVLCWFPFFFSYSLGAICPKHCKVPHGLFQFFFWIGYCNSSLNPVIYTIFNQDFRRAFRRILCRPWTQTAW
Procedure, shortened: as §1

L-type calcium channel = target: T4, L-type calcium channel (Rattus norvegicus, UniProt P22002); test: Competition binding of [3H]nitrendipine to membrane fragments of rat cardiac muscle; details: for Ki: read-out: pKi Ca (converted)
T4 construct: membrane fragments of rat cardiac muscle; from tissue; host or cells: rat cardiac muscle membranes
T4 sequence (P22002 whole entry, other chains not shown, the tested form may be a part): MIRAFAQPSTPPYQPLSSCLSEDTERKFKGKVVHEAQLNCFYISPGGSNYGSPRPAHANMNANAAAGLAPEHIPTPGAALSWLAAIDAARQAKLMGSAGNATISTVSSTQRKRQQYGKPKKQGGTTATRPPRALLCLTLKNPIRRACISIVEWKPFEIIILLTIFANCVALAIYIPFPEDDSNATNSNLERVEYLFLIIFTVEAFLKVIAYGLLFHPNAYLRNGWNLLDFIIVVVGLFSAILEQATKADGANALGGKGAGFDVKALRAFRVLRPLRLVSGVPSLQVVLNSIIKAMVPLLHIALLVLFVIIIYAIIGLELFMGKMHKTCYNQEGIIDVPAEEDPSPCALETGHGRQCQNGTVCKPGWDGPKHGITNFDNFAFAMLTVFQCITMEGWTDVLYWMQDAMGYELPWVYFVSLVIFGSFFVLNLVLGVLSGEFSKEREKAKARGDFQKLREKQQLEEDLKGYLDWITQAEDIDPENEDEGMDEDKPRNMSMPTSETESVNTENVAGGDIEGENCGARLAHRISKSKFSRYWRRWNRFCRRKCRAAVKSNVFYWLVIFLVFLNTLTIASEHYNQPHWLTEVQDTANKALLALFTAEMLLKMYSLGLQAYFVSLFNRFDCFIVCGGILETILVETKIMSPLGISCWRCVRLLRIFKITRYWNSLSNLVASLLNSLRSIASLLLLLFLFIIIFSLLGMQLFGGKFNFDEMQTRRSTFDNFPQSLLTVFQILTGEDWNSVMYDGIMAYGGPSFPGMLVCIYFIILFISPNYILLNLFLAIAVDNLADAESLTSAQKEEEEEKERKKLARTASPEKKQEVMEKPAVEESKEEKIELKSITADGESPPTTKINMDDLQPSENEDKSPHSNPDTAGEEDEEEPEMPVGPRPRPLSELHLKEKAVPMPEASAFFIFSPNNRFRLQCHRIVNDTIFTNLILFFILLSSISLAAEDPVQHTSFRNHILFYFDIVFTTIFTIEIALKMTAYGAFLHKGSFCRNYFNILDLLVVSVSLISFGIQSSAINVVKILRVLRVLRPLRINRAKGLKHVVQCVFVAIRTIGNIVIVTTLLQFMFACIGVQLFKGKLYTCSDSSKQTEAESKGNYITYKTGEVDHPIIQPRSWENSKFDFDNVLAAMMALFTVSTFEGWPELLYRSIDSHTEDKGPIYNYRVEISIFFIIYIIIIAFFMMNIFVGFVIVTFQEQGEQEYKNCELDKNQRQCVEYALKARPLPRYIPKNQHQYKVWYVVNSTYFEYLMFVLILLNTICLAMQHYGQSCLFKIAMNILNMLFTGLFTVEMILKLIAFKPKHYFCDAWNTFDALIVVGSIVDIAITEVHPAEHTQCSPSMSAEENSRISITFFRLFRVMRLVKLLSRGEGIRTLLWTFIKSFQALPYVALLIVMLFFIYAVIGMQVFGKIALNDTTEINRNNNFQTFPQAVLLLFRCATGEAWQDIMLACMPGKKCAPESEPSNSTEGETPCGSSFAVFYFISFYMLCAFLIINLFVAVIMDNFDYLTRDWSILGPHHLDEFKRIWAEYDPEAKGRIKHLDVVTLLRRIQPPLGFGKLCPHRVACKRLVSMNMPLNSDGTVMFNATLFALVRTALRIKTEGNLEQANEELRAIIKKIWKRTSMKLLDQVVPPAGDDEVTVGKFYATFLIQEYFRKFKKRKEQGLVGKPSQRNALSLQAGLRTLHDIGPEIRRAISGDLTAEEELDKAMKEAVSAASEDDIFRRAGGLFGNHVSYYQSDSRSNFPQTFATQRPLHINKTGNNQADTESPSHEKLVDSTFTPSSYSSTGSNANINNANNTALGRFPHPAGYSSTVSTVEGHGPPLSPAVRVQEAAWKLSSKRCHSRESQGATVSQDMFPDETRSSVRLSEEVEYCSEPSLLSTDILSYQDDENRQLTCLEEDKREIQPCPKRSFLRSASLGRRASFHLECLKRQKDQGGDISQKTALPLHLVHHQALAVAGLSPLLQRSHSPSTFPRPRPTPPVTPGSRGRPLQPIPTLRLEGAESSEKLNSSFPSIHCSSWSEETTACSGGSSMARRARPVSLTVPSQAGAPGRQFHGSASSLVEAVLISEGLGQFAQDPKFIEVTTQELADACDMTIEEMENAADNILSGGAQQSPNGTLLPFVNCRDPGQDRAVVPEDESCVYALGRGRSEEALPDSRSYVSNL
T4 sequence (P54290 25-944 partner limits assumed, other chains not shown): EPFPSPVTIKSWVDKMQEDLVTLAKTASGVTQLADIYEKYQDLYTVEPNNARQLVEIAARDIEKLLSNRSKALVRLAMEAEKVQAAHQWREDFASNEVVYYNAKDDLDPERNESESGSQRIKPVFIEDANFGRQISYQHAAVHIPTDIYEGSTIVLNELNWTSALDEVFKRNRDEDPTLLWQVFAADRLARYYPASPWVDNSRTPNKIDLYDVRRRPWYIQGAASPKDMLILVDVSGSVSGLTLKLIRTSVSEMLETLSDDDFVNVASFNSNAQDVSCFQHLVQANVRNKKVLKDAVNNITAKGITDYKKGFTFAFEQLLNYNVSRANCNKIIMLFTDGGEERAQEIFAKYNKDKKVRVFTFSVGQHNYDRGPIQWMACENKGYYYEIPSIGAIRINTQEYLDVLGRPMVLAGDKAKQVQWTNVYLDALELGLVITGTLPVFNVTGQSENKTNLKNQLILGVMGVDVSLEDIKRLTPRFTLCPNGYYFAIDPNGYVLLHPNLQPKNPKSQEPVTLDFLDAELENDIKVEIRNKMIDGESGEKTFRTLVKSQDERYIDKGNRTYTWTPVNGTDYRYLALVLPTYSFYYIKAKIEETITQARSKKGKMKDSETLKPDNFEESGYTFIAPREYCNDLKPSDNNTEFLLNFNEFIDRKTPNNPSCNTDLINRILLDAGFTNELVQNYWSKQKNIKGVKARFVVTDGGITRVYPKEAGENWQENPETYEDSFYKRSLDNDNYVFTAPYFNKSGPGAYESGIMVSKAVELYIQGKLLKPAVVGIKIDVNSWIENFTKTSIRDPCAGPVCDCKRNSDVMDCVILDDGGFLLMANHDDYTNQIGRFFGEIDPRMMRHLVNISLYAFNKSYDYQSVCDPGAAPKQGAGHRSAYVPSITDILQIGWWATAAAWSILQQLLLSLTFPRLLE
T4 sequence (P54290 945-1091 partner limits assumed, other chains not shown): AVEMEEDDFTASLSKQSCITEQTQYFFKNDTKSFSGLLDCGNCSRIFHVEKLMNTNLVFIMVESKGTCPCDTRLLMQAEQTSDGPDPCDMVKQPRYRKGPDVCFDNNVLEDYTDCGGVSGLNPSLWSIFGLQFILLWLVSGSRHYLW

[2] = cloned human receptor in LM(tk-) cell membranes, SEM and n in lines below
[3] = [3H]rauwolscine, LM(tk-) cell line L-α2A, SEM and n in lines below
[4] = [3H]rauwolscine, LM(tk-) cell line L-NGC-α2B, SEM and n in lines below
[5] = [3H]nitrendipine, rat cardiac muscle membranes, SEM and n in lines below
[6] = cloned human α1B receptor, LM(tk−) cell membranes
[7] = [3H]rauwolscine, human α2A receptor, LM(tk−) cells
[8] = [3H]rauwolscine, human α2B receptor, LM(tk−) cells
[9] = [3H]nitrendipine, rat cardiac muscle membrane fragments, L-type calcium channel
[10] = [3H]rauwolscine, human receptor, LM(tk-) cell lysates, mean

Compound: CCC1=C(C(=O)NCCCN2CCC(c3ccccc3)CC2)C(c2ccc([N+](=O)[O-])cc2)C(C(=O)OC)=C(C)N1 (centres unmarked) [Example 74, 2-Ethyl-1,4-dihydro-5-methoxycarbonyl-6-methyl-4-(4-nitro)phenyl-3-(N-(3-(4-phenylpiperidin-1-yl)propyl)) carboxamidopyridine hydrochloride hydrate]
- Ki [1, 2]: 0.0191 µM
- Ki (α2A receptor; [3]): 0.0589 µM
- Ki (α2B receptor; [4]): 0.0891 µM
- Ki (L-type calcium channel; [5]): 5.25 µM

Compound: COC(=O)C1=C(C)NC(C)=C(C(=O)NCCCN2CCC(c3ccccc3)CC2)C1c1ccc([N+](=O)[O-])cc1 (racemic) [(±)-45, (±)-1,4-Dihydro-3-methoxycarbonyl-2,6-dimethyl-4-(4-nitrophenyl)-5-{N-[3-(4-phenylpiperidin-1-yl)propyl]}carboxamidopyridine hydrochloride hemihydrate]
- Ki [1, 2]: 0.0135 µM
- Ki (α2A receptor; [3]): 0.282 µM
- Ki (α2B receptor; [4]): 0.214 µM
- Ki (L-type calcium channel; [5]): 7.41 µM

Compound: COC(=O)C1=C(C)NC(C)=C(C(=O)NCCCCN2CCC(c3ccccc3)CC2)C1c1ccc([N+](=O)[O-])cc1 (centres unmarked) [Example 3, 1,4-Dihydro-3-methoxycarbonyl-2,6-dimethyl-4-(4-nitrophenyl)-5-{N-[4-(4-phenylpiperidin-1-yl)butyl]}carbozamidopyridine hydrochloride hydrate]
- Ki [1, 2]: 0.0646 µM
- Ki (α2A receptor; [3]): 0.102 µM
- Ki (α2B receptor; [4]): 0.0224 µM
- Ki (L-type calcium channel; [5]): 1000 µM

Compound: CCC1=C(C(N)=O)C(c2ccc([N+](=O)[O-])cc2)C(C(=O)NCCCN2CCC(O)(c3ccccc3)CC2)=CN1CC.Cl.O (centres unmarked) [Example 101, 5-Carboxamido-1,6-diethyl-1,4-dihydro-3-{N-[3-(4-hydroxy-4-phenylpiperidin-1-yl)propyl]}carboxamido-4-(4-nitrophenyl)pyridine hydrochloride hydrate]
- pKi alpha-1 1b [1, 6]: 6.22
- pKi alpha-2 2a (α2A receptor; [7]): 5.89
- pKi alpha-2 2b (α2B receptor; [8]): 6.18
- pKi Ca (L-type calcium channel; [9]): 3

Compound: CC1=C(C(N)=O)C(c2ccc([N+](=O)[O-])cc2)C(C(=O)NCCCN2CCC(C(=O)OCCC#N)(c3ccccc3)CC2)=CN1C (centres unmarked) [Example 209, 5-Carboxamido-3-{N-[3-(4-(2-cyanoethoxycarbonyl)-4-phenylpiperidin-1-yl)propyl]}carboxamido-1,4-dihydro-1,6-dimethyl-4-(4-nitrophenyl) pyridine]
- PKi alpha-1 1b ([1]; cloned human receptor, LM(tk-) cell membranes, mean): 5.44
- PKi alpha-2 2a (α2A receptor; [10]): 5.78
- PKi alpha-2 2b (α2B receptor; [10]): 6.46
- PKi Ca (L-type calcium channel; [3H]nitrendipine, rat cardiac muscle membranes, mean): 4.53

Compound: COc1ccccc1N1CCN(CCCNC(=O)C2=C(C)NC(C)=C(C(N)=O)C2c2ccc([N+](=O)[O-])cc2)CC1 (centres unmarked) [Example 124]
- Ki [1, 6]: 0.0891 µM
- Ki (α2A receptor; [7]): 0.0224 µM
- Ki (α2B receptor; [8]): 0.2 µM
- Ki (L-type calcium channel; [9]): 1000 µM

Compound: CCC1=C(C(N)=O)C(c2ccc([N+](=O)[O-])cc2)C(C(=O)NC2CCN(CCc3c[nH]c4ccccc34)CC2)=CN1CC (centres unmarked) [Example 122, 5-Carboxamido-1,4-dihydro-3-(N-{1-[2-(3-indolyl)ethyl]piperidin-4-yl}) carboxamido-1,6-diethyl-4-(4-nitrophenyl)pyridine]
- pKi alpha-1 1b [1, 6]: 7.57
- pKi alpha-2 2a (α2A receptor; [7]): 6.38
- pKi alpha-2 2b (α2B receptor; [8]): 7.35
- pKi Ca (L-type calcium channel; [9]): 3

Compound: CCC1=C(C(=O)NC)C(c2ccc([N+](=O)[O-])cc2)C(C(=O)NCCCN2CCC(C#N)(c3ccccc3)CC2)=C(CC)N1 (centres unmarked) [Example 126, 3-{N-[3-(4-Cyano-4-phenylpiperidin-1-yl)propyl]}carboxamido-1,4-dihydro-2,6-diethyl-5-(1-methyl)carboxamido-4-(4-nitrophenyl)pyridine]
- pKi alpha-1 1b [1, 6]: 5.37
- pKi alpha-2 2a (α2A receptor; [7]): 5.33
- pKi alpha-2 2b (α2B receptor; [8]): 5.63
- pKi Ca (L-type calcium channel; [9]): 6.34

Compound: 5-Acetyl-1,4-dihydro-2,6-dimethyl-4-(4-nitrophenyl)-3-[3-(4,4-diphenylpiperidin-1-yl)propoxy]carbonylpyridine hydrochloride hemihydrate [Example 49]
- pKi alpha-1 1b [1, 2]: 6.72
- pKi alpha-2 2a (α2A receptor): 6.63
- pKi alpha-2 2b (α2B receptor): 6.42
- pKi Ca (L-type calcium channel): 5.37

Compound: COC(=O)C1=C(C)NC(c2ccoc2)=C(C(=O)NCCCN2CCC(c3ccccc3)CC2)C1c1ccc([N+](=O)[O-])cc1 (centres unmarked) [Example 65, 2-(Furan-3-yl)-1,4-dihydro-5-methoxycarbonyl-6-methyl-4-(4-nitrophenyl)-5-{N-[3-(4-phenylpiperidin-1-yl)propyl]}carboxamidopyridine hydrochloride hydrate]
- Ki [1, 2]: 0.0575 µM
- Ki (α2A receptor; [3]): 0.2 µM
- Ki (α2B receptor; [4]): 0.0977 µM
- Ki (L-type calcium channel; [5]): 3.09 µM

Compound: COc1cc2c(cc1OC)CN(CCCNC(=O)C1=C(C)NC(C)=C(C(N)=O)C1c1ccc([N+](=O)[O-])cc1)CC2 (centres unmarked) [Example 58, 5-Carboxamido-1,4-dihydro-3-{N-[3-(1,2,3,4-tetrahydro-6,7-dimethoxyisoquinolin-2-yl)propyl]}carboxamido-2,6-dimethyl-4-(4-nitrophenyl)pyridine hydrochloride]
- Ki [1, 2]: 2.29 µM
- Ki (α2A receptor; [3]): 0.00832 µM
- Ki (α2B receptor; [4]): 1.45 µM
- Ki (L-type calcium channel; [5]): 166 µM

Compound: CCC1=C(C(N)=O)C(c2ccc([N+](=O)[O-])cc2)C(C(=O)NCCCN2CCC(c3ccccc3)(c3ccccc3)CC2)=C(CC)N1 (centres unmarked) [Example 120, 5-Carboxamido-2,6-diethyl-1,4-dihydro-4-(4-nitrophenyl)-3-{N-[3-(4,4-diphenylpiperidin-1-yl)propyl]} carboxamidopyridine]
- pKi alpha-1 1b [1, 6]: 6.61
- Ki (α2A receptor; [7]): 0.363 µM
- pKi alpha-2 2b (α2B receptor; [8]): 6.59
- Ki (L-type calcium channel; [9]): 1000 µM

Compound: CC1=C(C(N)=O)C(c2ccc([N+](=O)[O-])cc2)C(C(=O)NC2CCN(Cc3ccccc3)CC2)=C(c2ccoc2)N1.Cl.O (centres unmarked) [Example 66]
- pKi alpha-1 1b [1, 2]: 5.36
- pKi alpha-2 2a (α2A receptor; [3]): 5.53
- pKi alpha-2 2b (α2B receptor; [4]): 5.35
- pKi Ca (L-type calcium channel; [5]): 6.22

Compound: CC1=C(C(=O)NCCCN2CCC(c3ccccc3)(c3ccccc3)CC2)C(c2ccc([N+](=O)[O-])cc2)C(C(=O)N(C)C)=C(C)N1 (centres unmarked) [Example 39, 1,4-Dihydro-2,6-dimethyl-3-(N,N-dimethyl) carboxamido-4-(4-nitrophenyl)-5-{N-[3-(4,4-diphenylpiperidin-1-yl)propyl]}carboxamidopyridine]
- pKi alpha-1 1b [1, 2]: 5.93
- pKi alpha-2 2b (α2B receptor; [4]): 5.74
- Ki (L-type calcium channel; [5]): 44.7 µM
- melting point: 135 °C
